Source: the kinase profiling compilation of Christmann-Franck et al. (2016)

Legend:
Assay in all cases: radiometric filter-binding kinase assay, Kinase HotSpot
Settings in all cases: compound 0.5 µM; ATP 10 µM
[1] = target: ACVR1B (human) (UniProt P36896)
[2] = target: AKT3 (human) (UniProt Q9Y243)
[3] = target: AURKC (human) (UniProt Q9UQB9)
[4] = target: AXL (human) (UniProt P30530)
[5] = target: BTK (human) (UniProt Q06187)
[6] = target: CAMK1D (human) (UniProt Q8IU85)
[7] = target: CAMK2A (human) (UniProt Q9UQM7)
[8] = target: CAMK2D (human) (UniProt Q13557)
[9] = target: CDK2 CCNA2 (human) (UniProt P24941+P20248)
[10] = target: CDK6 CCND1 (human) (UniProt Q00534+P24385)
[11] = target: CSK (human) (UniProt P41240)
[12] = target: CSNK2A1 (human) (UniProt P68400)
[13] = target: DAPK1 (human) (UniProt P53355)
[14] = target: DYRK3 (human) (UniProt O43781)
[15] = target: EPHA4 (human) (UniProt P54764)
[16] = target: FER (human) (UniProt P16591)
[17] = target: INSR (human) (UniProt P06213)
[18] = target: LCK (human) (UniProt P06239)
[19] = target: MAP3K14 (human) (UniProt Q99558)
[20] = target: MAP3K3 (human) (UniProt Q99759)
[21] = target: MAP3K5 (human) (UniProt Q99683)
[22] = target: MAP3K8 (human) (UniProt P41279)
[23] = target: MAP4K2 (human) (UniProt Q12851)
[24] = target: MAPK11 (human) (UniProt Q15759)
[25] = target: MAPK8 (human) (UniProt P45983)
[26] = target: NEK11 (human) (UniProt Q8NG66)
[27] = target: PAK6 (human) (UniProt Q9NQU5)
[28] = target: PBK (human) (UniProt Q96KB5)
[29] = target: PDGFRB (human) (UniProt P09619)
[30] = target: PRKD1 (human) (UniProt Q15139)
[31] = target: PRKD3 (human) (UniProt O94806)
[32] = target: PTK2B (human) (UniProt Q14289)
[33] = target: ROCK1 (human) (UniProt Q13464)
[34] = target: RPS6KA3 KD1 KD2 (human) (UniProt P51812)
[35] = target: SLK (human) (UniProt Q9H2G2)
[36] = target: SRPK2 (human) (UniProt P78362)
[37] = target: STK10 (human) (UniProt O94804)
[38] = target: STK33 (human) (UniProt Q9BYT3)
[39] = target: TAOK3 (human) (UniProt Q9H2K8)
[40] = target: TYK2 JH1 catalytic (human) (UniProt P29597)
Chain of TYK2 JH1 catalytic (human) (P29597 whole entry, looked up): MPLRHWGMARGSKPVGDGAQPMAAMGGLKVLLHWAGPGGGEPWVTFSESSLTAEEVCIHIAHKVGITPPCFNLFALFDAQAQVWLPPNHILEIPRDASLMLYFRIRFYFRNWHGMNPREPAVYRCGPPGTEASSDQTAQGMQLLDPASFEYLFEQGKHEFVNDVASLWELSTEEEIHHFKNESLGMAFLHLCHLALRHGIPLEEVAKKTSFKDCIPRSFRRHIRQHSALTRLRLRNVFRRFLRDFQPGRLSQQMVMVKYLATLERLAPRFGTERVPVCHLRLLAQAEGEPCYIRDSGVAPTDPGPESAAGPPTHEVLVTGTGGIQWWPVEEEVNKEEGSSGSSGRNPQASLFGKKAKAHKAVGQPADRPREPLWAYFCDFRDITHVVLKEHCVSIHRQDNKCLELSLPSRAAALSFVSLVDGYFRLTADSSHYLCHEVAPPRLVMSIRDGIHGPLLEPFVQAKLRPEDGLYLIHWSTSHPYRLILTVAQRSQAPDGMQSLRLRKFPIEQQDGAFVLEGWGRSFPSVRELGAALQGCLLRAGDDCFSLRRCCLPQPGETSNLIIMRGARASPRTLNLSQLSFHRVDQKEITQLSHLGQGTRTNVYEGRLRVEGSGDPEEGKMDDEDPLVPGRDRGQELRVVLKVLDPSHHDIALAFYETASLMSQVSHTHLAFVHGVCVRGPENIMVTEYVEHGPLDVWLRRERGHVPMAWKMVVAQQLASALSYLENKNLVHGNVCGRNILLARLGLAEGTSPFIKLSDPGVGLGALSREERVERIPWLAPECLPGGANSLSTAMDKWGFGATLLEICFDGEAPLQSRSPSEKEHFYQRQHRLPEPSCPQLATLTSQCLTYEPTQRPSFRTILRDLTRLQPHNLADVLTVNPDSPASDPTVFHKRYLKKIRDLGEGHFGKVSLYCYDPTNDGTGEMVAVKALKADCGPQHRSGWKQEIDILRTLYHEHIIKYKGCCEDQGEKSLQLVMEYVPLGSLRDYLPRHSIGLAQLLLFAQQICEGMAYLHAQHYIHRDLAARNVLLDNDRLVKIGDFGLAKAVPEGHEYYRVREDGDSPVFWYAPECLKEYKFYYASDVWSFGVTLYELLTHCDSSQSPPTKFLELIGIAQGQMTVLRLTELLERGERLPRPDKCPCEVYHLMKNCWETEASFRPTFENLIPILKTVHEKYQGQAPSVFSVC

Chain of CAMK2A (human) (Q9UQM7 whole entry, looked up): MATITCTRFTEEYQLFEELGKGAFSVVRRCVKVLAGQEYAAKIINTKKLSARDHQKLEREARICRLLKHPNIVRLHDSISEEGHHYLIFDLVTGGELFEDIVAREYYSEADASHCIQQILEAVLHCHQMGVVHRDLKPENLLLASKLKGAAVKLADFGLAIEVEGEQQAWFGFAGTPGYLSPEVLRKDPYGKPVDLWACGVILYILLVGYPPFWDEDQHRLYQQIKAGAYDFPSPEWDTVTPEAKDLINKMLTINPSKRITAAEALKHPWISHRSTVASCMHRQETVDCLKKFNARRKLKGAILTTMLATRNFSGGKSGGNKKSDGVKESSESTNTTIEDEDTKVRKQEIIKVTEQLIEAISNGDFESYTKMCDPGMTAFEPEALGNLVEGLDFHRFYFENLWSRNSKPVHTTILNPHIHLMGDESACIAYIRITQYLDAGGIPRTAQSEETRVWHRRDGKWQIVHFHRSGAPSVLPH
Chain of CDK2 CCNA2 (human) (P20248 whole entry, looked up, other chains not shown): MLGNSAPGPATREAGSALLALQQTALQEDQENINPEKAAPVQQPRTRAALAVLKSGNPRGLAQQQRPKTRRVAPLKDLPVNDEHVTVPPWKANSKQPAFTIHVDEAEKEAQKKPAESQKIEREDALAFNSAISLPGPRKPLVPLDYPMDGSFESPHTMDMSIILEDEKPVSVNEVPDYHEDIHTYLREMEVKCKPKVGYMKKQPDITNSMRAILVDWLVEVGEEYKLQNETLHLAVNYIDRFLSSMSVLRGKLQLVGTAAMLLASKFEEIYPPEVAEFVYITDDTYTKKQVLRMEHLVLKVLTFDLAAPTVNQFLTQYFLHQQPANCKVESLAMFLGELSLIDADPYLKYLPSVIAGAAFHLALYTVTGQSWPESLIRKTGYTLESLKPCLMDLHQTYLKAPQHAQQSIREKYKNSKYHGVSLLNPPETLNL
Chain of PDGFRB (human) (P09619 whole entry, looked up): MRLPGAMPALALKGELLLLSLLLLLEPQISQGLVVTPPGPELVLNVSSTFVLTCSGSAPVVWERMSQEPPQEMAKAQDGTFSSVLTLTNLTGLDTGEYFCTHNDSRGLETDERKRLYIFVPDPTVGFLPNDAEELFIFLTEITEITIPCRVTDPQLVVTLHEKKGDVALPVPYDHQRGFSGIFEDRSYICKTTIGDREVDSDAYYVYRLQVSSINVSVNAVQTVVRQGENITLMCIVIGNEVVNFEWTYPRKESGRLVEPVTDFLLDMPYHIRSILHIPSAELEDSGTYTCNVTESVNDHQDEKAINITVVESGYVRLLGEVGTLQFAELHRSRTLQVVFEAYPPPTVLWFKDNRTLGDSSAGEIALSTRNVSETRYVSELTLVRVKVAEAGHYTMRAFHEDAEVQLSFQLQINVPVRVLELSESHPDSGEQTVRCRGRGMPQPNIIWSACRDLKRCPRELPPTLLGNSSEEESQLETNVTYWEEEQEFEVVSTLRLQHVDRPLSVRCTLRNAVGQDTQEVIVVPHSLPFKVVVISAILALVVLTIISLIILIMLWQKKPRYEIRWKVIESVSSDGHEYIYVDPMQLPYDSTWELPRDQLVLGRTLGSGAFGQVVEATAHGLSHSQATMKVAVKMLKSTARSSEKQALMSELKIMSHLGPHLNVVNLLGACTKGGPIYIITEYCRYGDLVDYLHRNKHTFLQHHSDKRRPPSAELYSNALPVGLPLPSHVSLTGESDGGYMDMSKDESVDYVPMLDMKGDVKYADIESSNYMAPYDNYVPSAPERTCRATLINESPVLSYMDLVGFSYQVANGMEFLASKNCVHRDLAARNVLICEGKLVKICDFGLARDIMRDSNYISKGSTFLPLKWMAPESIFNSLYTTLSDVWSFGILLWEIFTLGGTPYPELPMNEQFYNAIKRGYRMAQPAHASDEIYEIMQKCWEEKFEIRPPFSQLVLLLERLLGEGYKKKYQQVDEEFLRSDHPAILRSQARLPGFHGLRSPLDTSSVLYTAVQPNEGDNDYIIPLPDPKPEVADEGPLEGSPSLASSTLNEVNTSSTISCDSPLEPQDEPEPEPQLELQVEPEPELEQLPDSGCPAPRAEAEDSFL
Chain of MAP3K8 (human) (P41279 whole entry, looked up): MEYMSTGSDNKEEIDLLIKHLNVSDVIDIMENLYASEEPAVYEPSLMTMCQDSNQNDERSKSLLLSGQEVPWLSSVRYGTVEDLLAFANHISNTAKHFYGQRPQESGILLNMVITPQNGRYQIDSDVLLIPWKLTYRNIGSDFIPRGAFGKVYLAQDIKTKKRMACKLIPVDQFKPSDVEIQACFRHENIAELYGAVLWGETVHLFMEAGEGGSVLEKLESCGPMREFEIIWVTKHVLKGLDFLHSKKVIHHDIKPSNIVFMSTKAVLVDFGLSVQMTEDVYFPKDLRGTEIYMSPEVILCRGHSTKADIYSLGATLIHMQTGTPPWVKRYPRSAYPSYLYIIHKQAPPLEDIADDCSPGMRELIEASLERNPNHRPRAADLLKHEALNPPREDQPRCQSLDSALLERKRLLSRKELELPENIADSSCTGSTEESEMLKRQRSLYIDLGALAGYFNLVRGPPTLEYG
Chain of MAP3K5 (human) (Q99683 whole entry, looked up): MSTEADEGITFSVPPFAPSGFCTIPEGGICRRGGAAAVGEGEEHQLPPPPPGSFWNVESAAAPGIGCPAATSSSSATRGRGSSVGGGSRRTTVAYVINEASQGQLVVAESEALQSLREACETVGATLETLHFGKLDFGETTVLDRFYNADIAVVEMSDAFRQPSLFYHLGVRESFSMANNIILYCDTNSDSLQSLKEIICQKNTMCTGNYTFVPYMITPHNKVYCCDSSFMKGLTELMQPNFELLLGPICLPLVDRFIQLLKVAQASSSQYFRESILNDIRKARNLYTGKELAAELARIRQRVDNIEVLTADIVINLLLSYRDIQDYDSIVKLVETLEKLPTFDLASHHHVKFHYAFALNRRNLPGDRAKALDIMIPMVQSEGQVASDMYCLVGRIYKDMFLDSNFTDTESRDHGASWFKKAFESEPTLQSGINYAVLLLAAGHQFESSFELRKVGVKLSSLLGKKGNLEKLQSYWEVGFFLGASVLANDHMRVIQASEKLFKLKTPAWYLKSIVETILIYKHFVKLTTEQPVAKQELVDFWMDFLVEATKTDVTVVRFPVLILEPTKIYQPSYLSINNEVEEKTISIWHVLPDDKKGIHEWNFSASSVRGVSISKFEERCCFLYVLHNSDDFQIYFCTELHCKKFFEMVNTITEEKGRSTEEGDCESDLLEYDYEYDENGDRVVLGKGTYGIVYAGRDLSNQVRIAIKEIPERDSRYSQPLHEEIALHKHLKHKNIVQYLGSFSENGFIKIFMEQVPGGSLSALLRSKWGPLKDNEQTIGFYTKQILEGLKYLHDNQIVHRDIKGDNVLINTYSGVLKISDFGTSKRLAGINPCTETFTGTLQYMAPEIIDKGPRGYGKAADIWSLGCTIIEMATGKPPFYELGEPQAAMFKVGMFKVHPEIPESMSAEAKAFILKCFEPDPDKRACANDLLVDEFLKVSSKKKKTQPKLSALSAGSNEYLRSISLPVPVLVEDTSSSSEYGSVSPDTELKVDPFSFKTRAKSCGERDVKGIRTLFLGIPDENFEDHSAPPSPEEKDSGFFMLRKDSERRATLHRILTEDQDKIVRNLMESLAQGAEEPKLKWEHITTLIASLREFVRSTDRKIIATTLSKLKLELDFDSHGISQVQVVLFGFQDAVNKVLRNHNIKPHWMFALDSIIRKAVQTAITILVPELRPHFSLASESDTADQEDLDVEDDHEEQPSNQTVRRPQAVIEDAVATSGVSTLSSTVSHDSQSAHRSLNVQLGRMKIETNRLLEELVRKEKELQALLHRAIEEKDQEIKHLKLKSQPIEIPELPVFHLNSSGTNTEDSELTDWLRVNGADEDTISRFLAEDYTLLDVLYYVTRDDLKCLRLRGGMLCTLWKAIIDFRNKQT

Structure (SMILES) | residual activity [1] [%] | residual activity [2] [%] | residual activity [3] [%] | residual activity [4] [%] | residual activity [5] [%] | residual activity [6] [%] | residual activity [7] [%] | residual activity [8] [%] | residual activity [9] [%] | residual activity [10] [%] | residual activity [11] [%] | residual activity [12] [%] | residual activity [13] [%] | residual activity [14] [%] | residual activity [15] [%] | residual activity [16] [%] | residual activity [17] [%] | residual activity [18] [%] | residual activity [19] [%] | residual activity [20] [%] | also measured
CC[n+]1c(/C=C/N(C)c2ccccc2)n(-c2ccccc2)c2ccc(-c3nc4ccccc4s3)cc21 | 110 | 109 | 91.3 | 101 | 91.6 | 99.7 | 103 | 94 | 100 | 103 | 100 | 96.8 | 74.7 | 98.7 | 91.9 | 98.9 | 94 | 89.9 | 96 | 109 | residual activity [21]: 100%; residual activity [22]: 92%; residual activity [23]: 103%; residual activity [24]: 101%; residual activity [25]: 96.3%; residual activity [26]: 91.6%; residual activity [27]: 95.5%; residual activity [28]: 107%; residual activity [29]: 102%; residual activity [30]: 91.9%; residual activity [31]: 97.4%; residual activity [32]: 103%; residual activity [33]: 98.1%; residual activity [34]: 109%; residual activity [35]: 101%; residual activity [36]: 105%; residual activity [37]: 101%; residual activity [38]: 89.4%; residual activity [39]: 116%; residual activity [40]: 88.5%
Nc1cccc(-c2cc3c(Oc4cccc(O)c4)ncnc3[nH]2)c1 | 122 | 96.2 | 77.7 | 75.9 | 33.6 | 97.7 | 115 | 99.8 | 88.5 | 82.2 | 43.6 | 96.8 | 89.1 | 89.8 | 48.3 | 44 | 93.7 | 24.2 | 69.6 | 96.4 | residual activity [21]: 94.9%; residual activity [22]: 99.6%; residual activity [23]: 55.5%; residual activity [24]: 108%; residual activity [25]: 94.4%; residual activity [26]: 89.6%; residual activity [27]: 109%; residual activity [28]: 93.9%; residual activity [29]: 39.9%; residual activity [30]: 94.4%; residual activity [31]: 91%; residual activity [32]: 65.6%; residual activity [33]: 94.1%; residual activity [34]: 96.9%; residual activity [35]: 64.1%; residual activity [36]: 99.1%; residual activity [37]: 45.8%; residual activity [38]: 80.3%; residual activity [39]: 93.5%; residual activity [40]: 36.9%
CCN(CC)C(=O)c1ccc(Nc2nc(OCC3CCCCC3)c3nc[nH]c3n2)cc1 | 101 | 101 | 20.7 | 80.8 | 37.1 | 101 | 105 | 94.5 | 55.8 | 52.9 | 83.1 | 87.4 | 81.6 | 97.6 | 86.7 | 42 | 92.8 | 39.8 | 132 | 47.3 | residual activity [21]: 96.9%; residual activity [22]: 101%; residual activity [23]: 59.7%; residual activity [24]: 85.5%; residual activity [25]: 51.1%; residual activity [26]: 132%; residual activity [27]: 95.5%; residual activity [28]: 116%; residual activity [29]: 54.6%; residual activity [30]: 62.6%; residual activity [31]: 66.5%; residual activity [32]: 48.7%; residual activity [33]: 54.9%; residual activity [34]: 17.6%; residual activity [35]: 71.2%; residual activity [36]: 87.8%; residual activity [37]: 57.3%; residual activity [38]: 67.2%; residual activity [39]: 74.2%; residual activity [40]: 4.96%
